According to patent publication US8178506B2, “Oligomeric compounds and compositions for use in modulation of small non-coding RNAs” (Regulus Therapeutics Inc., priority 2003, dated 2012):
In the oligonucleotide strings, read from the 5' end, every base follows the letter of its sugar. An asterisk marks phosphorothioate; unmarked linkages are phosphodiester. Other units and linkages are bracketed, terminal groups are in braces. A string of capitals states the bases alone. e = 2'-O-(2-methoxyethyl) (MOE); [5mC] = 5-methylcytosine

Assays:
Format in all cases: cell-based, human
Glut4 = Glut4 mRNA expression in adipocytes (real-time PCR)
HSL = HSL mRNA expression in adipocytes (real-time PCR)
adipocytes = assay: Triglyceride accumulation assay in adipocytes
PPARγ = PPARγ mRNA expression in adipocytes (real-time PCR)
aP2 = aP2 mRNA expression in adipocytes (real-time PCR); settings: for aP2 mRNA: Table 75
[1] = differentiating adipocytes transfected with oligomeric compound, Table 75
[2] = differentiating adipocytes transfected with oligomeric compound
[3] = Table 18, differentiating adipocytes, control = treatment with ISIS 342673
[4] = Table 17, differentiating adipocytes, control = treatment with ISIS 342673

Substance	GLUT4 mRNA (Glut4; [1])	HSL mRNA (HSL; [1])	TG (triglyceride accumulation) (adipocytes; [1])	PPAR gamma mRNA (PPARγ; [1])	aP2 mRNA (aP2; [2])	other results
346908 (GCUUUGACAAUACUAUUGCACUG; all 2'-MOE, all phosphorothioate, methylation of C and T or U not given here) [compound 346908]	65 percentage of untreated control (UTC)	71 percentage of untreated control (UTC)	75 percentage of untreated control (UTC)	77 percentage of untreated control (UTC)	77 percentage of untreated control (UTC)	–
340356 (antisense CUCAAUAGACUGUGAGCUCCUU; all 2'-MOE, all phosphorothioate, methylation of C and T or U not given here) [compound 340356]	54 percentage of untreated control (UTC)	59 percentage of untreated control (UTC)	43 percentage of untreated control (UTC)	62 percentage of untreated control (UTC)	73 percentage of untreated control (UTC)	–
328099 (antisense eA*eA*eG*eA*eA*e[5mC]*eA*eT*eT*eA*eA*eG*e[5mC]*eA*eT*e[5mC]*eT*eG*eA*e[5mC]*eA) [compound 328099]	61 percentage of untreated control (UTC)	74 percentage of untreated control (UTC)	57 percentage of untreated control (UTC)	72 percentage of untreated control (UTC)	80 percentage of untreated control (UTC)	GLUT4 mRNA (Glut4; [3]): 86.8 percentage of control; HSL mRNA (HSL; [3]): 88.4 percentage of control; TG (triglyceride accumulation) (adipocytes; [3]): 93.9 percentage of control; PPAR gamma mRNA (PPARγ; [3]): 81.9 percentage of control; AP2 mRNA (aP2; [3]): 85.9 percentage of control
328134 (eA*eA*eT*eT*eG*eG*eA*e[5mC]*eA*eA*eA*eG*eT*eG*e[5mC]*e[5mC]*eT*eT*eT*e[5mC]*eA; anti-miR) [compound 328134]	109 percentage of untreated control (UTC)	109 percentage of untreated control (UTC)	107 percentage of untreated control (UTC)	86 percentage of untreated control (UTC)	97 percentage of untreated control (UTC)	GLUT4 mRNA (Glut4; [4]): 88.3 percentage of control; HSL mRNA (HSL; [4]): 74.7 percentage of control; TG (triglyceride accumulation) (adipocytes; [4]): 85.7 percentage of control; PPAR gamma mRNA (PPARγ; [4]): 78.4 percentage of control; AP2 mRNA (aP2; [4]): 80.1 percentage of control
344277 (antisense AAUACAUACUUCUUUACAUUCCA; all 2'-MOE, all phosphorothioate, methylation of C and T or U not given here) [compound 344277]	45 percentage of untreated control (UTC)	57 percentage of untreated control (UTC)	75 percentage of untreated control (UTC)	68 percentage of untreated control (UTC)	61 percentage of untreated control (UTC)	–
341797 (antisense ACAAGUGCCUUCACUGCAGU; all 2'-MOE, all phosphorothioate, methylation of C and T or U not given here) [compound 341797]	17 percentage of untreated control (UTC)	29 percentage of untreated control (UTC)	20 percentage of untreated control (UTC)	50 percentage of untreated control (UTC)	45 percentage of untreated control (UTC)	–
344614 (CCAGCAGCACCUGGGGCAGU; all 2'-MOE, all phosphorothioate, methylation of C and T or U not given here) [compound 344614]	61 percentage of untreated control (UTC)	71 percentage of untreated control (UTC)	89 percentage of untreated control (UTC)	86 percentage of untreated control (UTC)	78 percentage of untreated control (UTC)	–
346914 (AUCUGCACUGUCAGCACUUUA; all 2'-MOE, all phosphorothioate, methylation of C and T or U not given here) [compound 346914]	16 percentage of untreated control (UTC)	27 percentage of untreated control (UTC)	41 percentage of untreated control (UTC)	41 percentage of untreated control (UTC)	48 percentage of untreated control (UTC)	–
346685 (GGCGGAACUUAGCCACUGUGAA; all 2'-MOE, all phosphorothioate, methylation of C and T or U not given here) [compound 346685]	233 percentage of untreated control (UTC)	172 percentage of untreated control (UTC)	164 percentage of untreated control (UTC)	138 percentage of untreated control (UTC)	181 percentage of untreated control (UTC)	–
328132 (antisense eG*eT*eG*eA*eG*eA*eG*eT*eA*eG*e[5mC]*eA*eT*eG*eT*eT*eT*eG*eT*e[5mC]*eT) [compound 328132]	–	–	–	–	–	GLUT4 mRNA (Glut4; [4]): 72.1 percentage of control; GLUT4 mRNA (Glut4; [2]): 67 percentage of untreated control (UTC); HSL mRNA (HSL; [4]): 73.7 percentage of control; HSL mRNA (HSL; [2]): 89 percentage of untreated control (UTC); TG (triglyceride accumulation) (adipocytes; [4]): 114.1 percentage of control; TG (triglyceride accumulation) (adipocytes; [2]): 120 percentage of untreated control (UTC); PPAR gamma mRNA (PPARγ; [4]): 90.0 percentage of control; PPAR gamma mRNA (PPARγ; [2]): 94 percentage of untreated control (UTC); AP2 mRNA (aP2; [4]): 90.2 percentage of control; AP2 mRNA (aP2; [2]): 81 percentage of untreated control (UTC)
340360 (antisense GCAACUUAGUAAUGUGCAAUA; all 2'-MOE, all phosphorothioate, methylation of C and T or U not given here) [compound 340360]	91 percentage of untreated control (UTC)	102 percentage of untreated control (UTC)	106 percentage of untreated control (UTC)	96 percentage of untreated control (UTC)	102 percentage of untreated control (UTC)	–
340354 (antisense UCAGACCGAGACAAGUGCAAUG; all 2'-MOE, all phosphorothioate, methylation of C and T or U not given here) [compound 340354]	61 percentage of untreated control (UTC)	56 percentage of untreated control (UTC)	64 percentage of untreated control (UTC)	74 percentage of untreated control (UTC)	72 percentage of untreated control (UTC)	–
327970 (antisense eA*e[5mC]*eA*eA*eA*eG*eT*eT*e[5mC]*eT*eG*eT*eA*eG*eT*eG*e[5mC]*eA*e[5mC]*eT*eG*eA) [compound 327970]	27 percentage of untreated control (UTC)	25 percentage of untreated control (UTC)	48 percentage of untreated control (UTC)	46 percentage of untreated control (UTC)	29 percentage of untreated control (UTC)	–
328095 (antisense eT*e[5mC]*eA*e[5mC]*eA*eG*eA*eG*eA*eA*eA*eA*e[5mC]*eA*eA*e[5mC]*eT*eG*eG*eT*eA) [compound 328095]	98 percentage of untreated control (UTC)	83 percentage of untreated control (UTC)	110 percentage of untreated control (UTC)	92 percentage of untreated control (UTC)	70 percentage of untreated control (UTC)	–
344338 (antisense AUGCCCUUUUAACAUUGCACUG; all 2'-MOE, all phosphorothioate, methylation of C and T or U not given here) [compound 344338]	66 percentage of untreated control (UTC)	89 percentage of untreated control (UTC)	103 percentage of untreated control (UTC)	91 percentage of untreated control (UTC)	86 percentage of untreated control (UTC)	–
327969 (antisense eT*eG*eT*eG*eA*eG*eT*eT*e[5mC]*eT*eA*e[5mC]*e[5mC]*eA*eT*eT*eG*e[5mC]*e[5mC]*eA*eA*eA) [compound 327969]	36 percentage of untreated control (UTC)	45 percentage of untreated control (UTC)	34 percentage of untreated control (UTC)	67 percentage of untreated control (UTC)	44 percentage of untreated control (UTC)	GLUT4 mRNA (Glut4; [3]): 60.6 percentage of control; HSL mRNA (HSL; [3]): 66.4 percentage of control; TG (triglyceride accumulation) (adipocytes; [3]): 46.0 percentage of control; PPAR gamma mRNA (PPARγ; [3]): 69.2 percentage of control; AP2 mRNA (aP2; [3]): 59.8 percentage of control
344617 (GACGGGUGCGAUUUCUGUGUGAGA; all 2'-MOE, all phosphorothioate, methylation of C and T or U not given here) [compound 344617]	42 percentage of untreated control (UTC)	55 percentage of untreated control (UTC)	52 percentage of untreated control (UTC)	72 percentage of untreated control (UTC)	59 percentage of untreated control (UTC)	–
